“Also recorded” adds a separate entry of the source.
Key:
[1] = test system: HL-60 cells; details: relative to 1,25D3; cited from earlier work
[2] = test system: Human lymphoma cells U 937; details: relative to calcitriol = 1; cited from earlier work
[3] = test system: Human lymphoma cells U 937; details: relative to calcitriol = 1; cited from earlier work; remark: listed apart in the source
[4] = test system: Lewis rats; details: relative to calcitriol = 1; cited from earlier work
[5] = target: T1, calf thymus VDR (Bos taurus, UniProt Q28037); assay: VDR binding assay, displacement of [^3 H]-1,25(OH)2 D3 from VDR; details: for Amount Bound (amount that results in 50% displacement of [^3 H]-1,25(OH)2 D3 from VDR): Table 3, calf thymus VDR
T1 construct: from the calf thymus VDR; from tissue; host or cells: calf thymus
T1 sequence (Q28037 1-426): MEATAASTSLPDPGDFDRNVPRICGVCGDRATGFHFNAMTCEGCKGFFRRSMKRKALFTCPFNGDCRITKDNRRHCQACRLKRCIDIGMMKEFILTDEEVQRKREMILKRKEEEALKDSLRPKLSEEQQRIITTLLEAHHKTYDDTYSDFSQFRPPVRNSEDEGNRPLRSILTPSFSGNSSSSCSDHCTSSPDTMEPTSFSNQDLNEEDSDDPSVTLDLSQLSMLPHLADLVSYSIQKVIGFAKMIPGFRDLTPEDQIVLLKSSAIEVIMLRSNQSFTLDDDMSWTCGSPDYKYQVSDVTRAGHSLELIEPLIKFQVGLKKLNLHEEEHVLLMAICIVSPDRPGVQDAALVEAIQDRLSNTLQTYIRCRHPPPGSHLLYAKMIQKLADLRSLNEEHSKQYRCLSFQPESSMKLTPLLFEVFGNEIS
Method: The VDR binding assay was performed according to the procedure of Reinhardt, T. A., Horst, R. L., Orf, J. W., Hollis, B. W., J. Clin. Endocrin. Metab., 58: 91-98 (1984), the entire contents of which are hereby incorporated herein by reference.

[6] = test system: keratinocyte; assay: Dose-response effects on keratinocyte proliferation (FIGS. 3, 4, 9, 10); type: cell-based; details: cell numbers at 0 and 96 hours
Method: N0 represents the number of cells at zero hours and N1 represents the number of cells at 96 hours.

[7] = test system: MDA 468 cells; assay: Thymidine incorporation by MDA 468 human breast cancer cells; type: cell-based; details: FIGS. 6A and 6B
From the text: (§1) FIGS. 6A and 6B show a comparison of the effects of 1,25(OH)2 D3 (filled squares), YA (filled circles) and YB (filled triangles) on thymidine incorporation by human breast cancer cell lines MDA 468 and SKBr 3.

[8] = test system: calcium channels; assay: Calcium channel opening assay; type: cell-based
[9] = test system: U 937 cancer cells; assay: Inhibition of cell proliferation in U 937 cancer cells (Table 5); type: cell-based, human; details: for IC50: Homo sapiens, U 937 cells; for inhibiting cell proliferation (in words): U 937, YB vs 1,25(OH)2 D3, YA up to 10^-7 M
[10] = test system: U 937 cancer cells; assay: Induction of cell differentiation in U 937 cancer cells (Table 5); type: cell-based, human
[11] = test system: U 937 cancer cells; assay: Viability of U 937 cancer cells (Table 5); type: cell-based; details: Homo sapiens, at 10^-7 M, read-out: Viability
[12] = Solubility in organic solvents; type: physicochemical; details: methylene chloride, chloroform, methanol; for YA/YB also EtOAc, acetone
[13] = test system: cell differentiation; assay: Induction of differentiation (ratings of Table 2); type: cell-based; details: for differentiation inducing activity: compared with calcitriol
[14] = test system: cell proliferation; assay: Anti-proliferative activity (summary statements); type: cell-based; details: compared with calcitriol or in general words
[15] = test system: RWLeu-4 human CML cell line; assay: Proliferation of RWLeu-4 human chronic myelogenous leukemic cells; type: cell-based; details: even at 50 nM; FIG. 5
From the text: MCW-II5-y-A is compound YA and MCW-II5-y-B is compound YB.

[16] = test system: human breast cancer cell lines MDA 468 and SKBr 3; assay: Thymidine incorporation by human breast cancer cell lines; type: cell-based; details: human breast cancer cells; FIGS. 6A and 6B
From the text: as §1

[17] = test system: cell proliferation; assay: Inhibition of proliferation (ratings of Table 2); type: cell-based; details: Table 2 rating

In the case of `C=C1/C(=C\C=C2/CCC[C@]3(C)[C@@H]([C@@H](C)OCCCC(O)(CC)CC)CC[C@@H]23)C[C@@H](O)C[C@@H]1O` [KH-1060], the “times as effective as 1,25D3 in the induction of leukemic cell (HL-60) differentiation” value [1] is given as 133 times, the “Relative Potency, Inhibition of Proliferation” value [2] is given as 31,000 and the “Relative Potency, Induction of Differentiation” value [3] is given as 100,000. For the same compound, the “Relative Potency, Calcemic Effects” value [4] was 1.3.
With `C=C1/C(=C\C=C2/CCC[C@]3(C)[C@@H]([C@@H](C)OCCCC(O)(CC)CC)CC[C@@H]23)C[C@@H](O)C[C@@H]1CO` [YA, 22-oxa-1-(hydroxymethyl)-26-(hydroxydiethyl) vitamin D3] the “VDR binding (in words)” value [5] was “even weaker binding for VDR than YB; also recorded: low VDR binding”, the “Amount Bound (amount that results in 50% displacement of [^3 H]-1,25(OH)2 D3 from VDR)” value [5] was 2.2 µg and the “effect on keratinocyte proliferation” value [6] was “not effective for inhibition of proliferation”. The “inhibition of growth (suppression of thymidine incorporation)” value [7] was “appears to have no effect”, the “Average peak shift compared to control” value ([8]; 0.05 nM) was 1.0 ± 0.1 mV and the “Average peak shift compared to control” value ([8]; 0.5 nM) was 10.8 ± 1.5 mV. The “Average peak shift compared to control” value ([8]; 5 nM) was 16.1 ± 4.1 mV, the “Average peak shift compared to control” value ([8]; 50 nM) was 18.6 ± 3.3 mV and the IC50 [9] was over 0.1 µM. The “inhibiting cell proliferation (in words)” value [9] was “ineffective”, the “inducing cell differentiation (in words)” value ([10]; at 10^-7 M) was “inactive” and the viability at 0.1 µM [11] was 99%. For the same compound, the “solubility in organic solvents” value [12] was “sparingly soluble”, the differentiation inducing activity [13] was “relatively ineffective in inducing differentiation” and the anti-proliferative activity [14] was “relatively ineffective in inducing differentiation or inhibiting proliferation”.
In the case of `C=C1/C(=C\C=C2/CCC[C@]3(C)[C@@H]([C@@H](C)OCCCC(O)(CC)CC)CC[C@@H]23)C[C@H](O)C[C@H]1CO` [YB, 22-oxa-1-(hydroxymethyl)-26-(hydroxydiethyl) vitamin D3], the “Amount Bound (amount that results in 50% displacement of [^3 H]-1,25(OH)2 D3 from VDR)” value [5] is reported as 0.0295 µg, the “times less strongly bound to VDR than 1,25(OH)2 D3” value ([5]; relative to 1,25(OH)2 D3) is reported as “about 1300 times” and the “effect on keratinocyte proliferation” value [6] is reported as “comparable to that of calcitriol”. For the same compound, the “anti-proliferative effect on RWLeu-4 cells” value [15] was “comparable to or slightly greater than that of calcitriol”, the “inhibition of growth (suppression of thymidine incorporation)” value [16] was “very comparable to calcitriol” and the “Average peak shift compared to control” value ([8]; 0.05 nM) was 3.6 ± 2.2 mV. For the same compound, the “Average peak shift compared to control” value ([8]; 0.5 nM) was 13.2 ± 2.8 mV, the “Average peak shift compared to control” value ([8]; 5 nM) was 16.6 ± 2.8 mV and the “Average peak shift compared to control” value ([8]; 50 nM) was 18.4 ± 2.1 mV. For the same compound, the IC50 [9] was 0.06 µM, the “inhibiting cell proliferation (in words)” value [9] was “about one third as active” and the “inducing cell differentiation (in words)” value ([10]; at a concentration of 10^-8 M) was “effective in inducing cell differentiation”. The viability at 0.1 µM [11] was 99%, the “solubility in organic solvents” value [12] was “sparingly soluble” and the “Inhibition of Proliferation (rating)” value [17] was 1. For the same compound, the “Induction of Differentiation (rating)” value ([13]; Table 2 rating) was 1 and the differentiation inducing activity [13] was “comparable to that of calcitriol”.
